# Results: US10093630B2, “Pyrazole compounds and methods of making and using same” (ABIDE THERAPEUTICS, INC., priority 2014, dated 2018)
# What was measured:
# Experiment in all cases: In vitro competitive activity-based protein profiling (gel-based, FP-Rh or HT-01 probe)
# Format in all cases: biochemical
# ABHD6 = biological target: T1, ABHD6 (Mus musculus, UniProt Q8R2Y0); settings: for inhibition at 1 µM: 1 μM inhibitor, read-out: % Inhibition at 1 μM, C = ABHD6; for IC50: mouse brain membrane fraction or cell lysates, 30 min preincubation at 37° C., read-out: Mouse (IC50 value, nM) ABHD6
# T1 construct: Proteomes (mouse brain membrane fraction or cell lysates); from tissue; host or cells: mouse brain membrane fraction (or cell lysates, not specified)
# T1 sequence (Q8R2Y0 1-336): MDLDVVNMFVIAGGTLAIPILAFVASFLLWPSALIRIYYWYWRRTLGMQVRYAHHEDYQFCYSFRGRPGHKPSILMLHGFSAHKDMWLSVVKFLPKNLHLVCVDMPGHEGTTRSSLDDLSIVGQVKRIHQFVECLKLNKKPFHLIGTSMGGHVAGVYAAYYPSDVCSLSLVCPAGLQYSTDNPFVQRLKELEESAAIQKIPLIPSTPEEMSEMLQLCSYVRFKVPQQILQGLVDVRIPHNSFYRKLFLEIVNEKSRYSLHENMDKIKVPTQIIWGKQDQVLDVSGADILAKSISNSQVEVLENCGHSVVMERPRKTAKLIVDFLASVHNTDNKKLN
# In short: (§1)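 Mouse brain membrane or cell lysate proteomes (1.0 mg/mL) preincubated with inhibitors 30 min at 37° C, then labelled with FP-Rh or HT-01 for 30 min at 37° C. After SDS-PAGE, activity quantified from fluorescent band intensity.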
# FAAH = biological target: T2, FAAH (Mus musculus, UniProt O08914); settings: for inhibition at 1 µM: 1 μM inhibitor, read-out: % Inhibition at 1 μM, B = FAAH; for IC50: mouse brain membrane fraction or cell lysates, 30 min preincubation at 37° C., read-out: Mouse (IC50 value, nM) FAAH
# T2 construct: Proteomes (mouse brain membrane fraction or cell lysates); from tissue; host or cells: mouse brain membrane fraction (or cell lysates, not specified)
# T2 sequence (O08914 1-579): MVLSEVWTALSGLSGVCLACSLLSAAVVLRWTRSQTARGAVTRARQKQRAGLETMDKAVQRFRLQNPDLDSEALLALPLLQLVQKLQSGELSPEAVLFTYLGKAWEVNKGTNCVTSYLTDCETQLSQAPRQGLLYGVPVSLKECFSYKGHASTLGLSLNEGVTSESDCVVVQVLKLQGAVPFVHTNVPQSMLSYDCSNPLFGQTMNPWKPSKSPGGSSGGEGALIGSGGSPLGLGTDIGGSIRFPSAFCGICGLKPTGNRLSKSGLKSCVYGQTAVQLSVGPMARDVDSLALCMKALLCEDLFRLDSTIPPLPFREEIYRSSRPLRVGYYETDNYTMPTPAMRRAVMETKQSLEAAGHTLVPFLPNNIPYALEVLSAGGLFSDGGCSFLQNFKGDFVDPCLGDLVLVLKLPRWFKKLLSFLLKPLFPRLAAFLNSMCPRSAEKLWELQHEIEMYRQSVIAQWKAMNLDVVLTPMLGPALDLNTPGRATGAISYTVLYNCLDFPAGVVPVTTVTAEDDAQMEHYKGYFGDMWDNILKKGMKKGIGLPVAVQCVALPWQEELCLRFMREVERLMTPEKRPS
# In short: as §1
# MAGL = biological target: T3, MAGL (Mus musculus, UniProt O35678); settings: for inhibition at 1 µM: 1 μM inhibitor; for IC50: mouse brain membrane fraction or cell lysates, 30 min preincubation at 37° C., read-out: Mouse (IC50 value, nM) MAGL
# T3 construct: Proteomes (mouse brain membrane fraction or cell lysates); from tissue; host or cells: mouse brain membrane fraction (or cell lysates, not specified)
# T3 sequence (O35678 1-303): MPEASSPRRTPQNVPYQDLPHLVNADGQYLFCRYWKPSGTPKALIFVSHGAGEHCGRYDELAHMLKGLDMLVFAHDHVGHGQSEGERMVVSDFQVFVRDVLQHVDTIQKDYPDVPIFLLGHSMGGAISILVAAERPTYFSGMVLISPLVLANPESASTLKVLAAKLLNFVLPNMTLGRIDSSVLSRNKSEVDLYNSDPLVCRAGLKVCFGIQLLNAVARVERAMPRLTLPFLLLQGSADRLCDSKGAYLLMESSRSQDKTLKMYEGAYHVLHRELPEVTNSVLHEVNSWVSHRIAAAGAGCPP
# In short: as §1
# PLA2G7 = biological target: T4, PLA2G7 (Mus musculus, UniProt Q60963); settings: for inhibition at 1 µM: 1 μM inhibitor, read-out: % Inhibition at 1 μM, D = PLA2G7; for IC50: mouse brain membrane fraction or cell lysates, 30 min preincubation at 37° C.
# T4 construct: Proteomes (mouse brain membrane fraction or cell lysates); from tissue; host or cells: mouse brain membrane fraction (or cell lysates, not specified)
# T4 sequence (Q60963 22-440): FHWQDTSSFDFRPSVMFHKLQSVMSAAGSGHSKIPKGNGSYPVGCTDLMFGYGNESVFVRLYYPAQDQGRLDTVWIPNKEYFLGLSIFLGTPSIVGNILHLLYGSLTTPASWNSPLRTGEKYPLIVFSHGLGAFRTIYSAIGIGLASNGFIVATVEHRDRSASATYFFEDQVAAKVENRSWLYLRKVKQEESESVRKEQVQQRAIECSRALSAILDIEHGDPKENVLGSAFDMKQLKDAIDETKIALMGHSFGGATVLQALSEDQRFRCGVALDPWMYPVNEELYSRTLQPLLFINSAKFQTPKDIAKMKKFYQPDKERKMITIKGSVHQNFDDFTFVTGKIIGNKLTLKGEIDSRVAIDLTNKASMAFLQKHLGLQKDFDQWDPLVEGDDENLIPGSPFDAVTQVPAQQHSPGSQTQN
# In short: as §1
Structure (SMILES),inhibition at 1 µM (ABHD6; gel-based competitive ABPP),inhibition at 1 µM (FAAH; gel-based competitive ABPP),inhibition at 1 µM (MAGL; gel-based competitive ABPP),inhibition at 1 µM (PLA2G7; gel-based competitive ABPP),IC50 (ABHD6),IC50 (FAAH),IC50 (MAGL),IC50 (PLA2G7),"inhibition at 10 µM (ABHD6; 10 μM inhibitor, gel-based competitive ABPP, read-out: % Inhibition at 10 μM, C = ABHD6)","inhibition at 10 µM (FAAH; 10 μM inhibitor, gel-based competitive ABPP, read-out: % Inhibition at 10 μM, B = FAAH)","inhibition at 10 µM (MAGL; 10 μM inhibitor, gel-based competitive ABPP)","inhibition at 10 µM (PLA2G7; 10 μM inhibitor, gel-based competitive ABPP, read-out: % Inhibition at 10 μM, D = PLA2G7)"
"CCN(Cc1ccc(OC)cc1)C(=O)n1cc(C)cn1 [Example 260, N-Ethyl-N-(4-methoxybenzyl)-4-methyl-1H-pyrazole-1-carboxamide]",< 25%,< 25%,< 25%,< 25%,–,–,–,–,–,–,–,–
"CCN(Cc1ccc(N2CCOCC2)cc1)C(=O)n1cc(C(F)(F)F)cn1 [Example 264, N-Ethyl-N-(4-morpholinobenzyl)-4-(trifluoromethyl)-1H-pyrazole-1-carboxamide]",< 25%,> 75%,> 75%,< 25%,> 1000 nM,< 100 nM,100 to 1000 nM,> 1000 nM,–,–,–,–
"O=C(N1CCN(Cc2cccc(Cl)c2)CC1)n1cc(C(F)(F)F)cn1 [Example 268, (4-(3-Chlorobenzyl)piperazin-1-yl)(4-(trifluoromethyl)-1H-pyrazol-1-yl)methanone]",> 75%,> 75%,> 75%,> 75%,< 100 nM,< 100 nM,< 100 nM,100 to 1000 nM,–,–,–,–
"O=C(N1CCN(Cc2cccc(F)c2)CC1)n1cc(C(F)(F)F)cn1 [Example 269, (4-(3-Fluorobenzyl)piperazin-1-yl)(4-(trifluoromethyl)-1H-pyrazol-1-yl)methanone]",> 75%,> 75%,> 75%,> 75%,< 100 nM,< 100 nM,< 100 nM,< 100 nM,–,–,–,–
"Cc1cccc(CN2CCN(C(=O)n3cc(C(F)(F)F)cn3)CC2)c1 [Example 270, (4-(3-Methylbenzyl)piperazin-1-yl)(4-(trifluoromethyl)-1H-pyrazol-1-yl)methanone]",> 75%,> 75%,> 75%,> 75%,–,–,–,–,–,–,–,–
"COc1cccc(CN2CCN(C(=O)n3cc(C(F)(F)F)cn3)CC2)c1 [Example 271, (4-(3-Methoxybenzyl)piperazin-1-yl)(4-(trifluoromethyl)-1H-pyrazol-1-yl)methanone]",> 75%,> 75%,> 75%,> 75%,< 100 nM,< 100 nM,< 100 nM,< 100 nM,–,–,–,–
"O=C(N1CCN(Cc2cccc(C(F)(F)F)c2)CC1)n1cc(C(F)(F)F)cn1 [Example 272, (4-(Trifluoromethyl)-1H-pyrazol-1-yl)(4-(3-(trifluoromethyl)benzyl)piperazin-1-yl)methanone]",> 75%,> 75%,> 75%,> 75%,< 100 nM,< 100 nM,< 100 nM,100 to 1000 nM,–,–,–,–
"O=C(N1CCN(Cc2cccc(N3CCCC3)c2)CC1)n1cc(C(F)(F)F)cn1 [Example 273, (4-(3-(Pyrrolidin-1-yl)benzyl)piperazin-1-yl)(4-(trifluoromethyl)-1H-pyrazol-1-yl)methanone]",> 75%,> 75%,> 75%,> 75%,< 100 nM,< 100 nM,< 100 nM,< 100 nM,–,–,–,–
"O=C(N1CCN(Cc2cccc(N3CCOCC3)c2)CC1)n1cc(C(F)(F)F)cn1 [Example 274, (4-(3-Morpholinobenzyl)piperazin-1-yl)(4-(trifluoromethyl)-1H-pyrazol-1-yl)methanone]",> 75%,> 75%,> 75%,> 75%,< 100 nM,100 to 1000 nM,< 100 nM,< 100 nM,–,–,–,–
"O=C(N1CCN(Cc2ccccc2Cl)CC1)n1cc(C(F)(F)F)cn1 [Example 275, (4-(2-Chlorobenzyl)piperazin-1-yl)(4-(trifluoromethyl)-1H-pyrazol-1-yl)methanone]",> 75%,> 75%,> 75%,> 75%,< 100 nM,< 100 nM,< 100 nM,< 100 nM,–,–,–,–

# More lines, now with the values ahead:
inhibition at 1 µM (ABHD6; gel-based competitive ABPP),inhibition at 1 µM (FAAH; gel-based competitive ABPP),inhibition at 1 µM (MAGL; gel-based competitive ABPP),inhibition at 1 µM (PLA2G7; gel-based competitive ABPP),IC50 (ABHD6),IC50 (FAAH),IC50 (MAGL),IC50 (PLA2G7),"inhibition at 10 µM (ABHD6; 10 μM inhibitor, gel-based competitive ABPP, read-out: % Inhibition at 10 μM, C = ABHD6)","inhibition at 10 µM (FAAH; 10 μM inhibitor, gel-based competitive ABPP, read-out: % Inhibition at 10 μM, B = FAAH)","inhibition at 10 µM (MAGL; 10 μM inhibitor, gel-based competitive ABPP)","inhibition at 10 µM (PLA2G7; 10 μM inhibitor, gel-based competitive ABPP, read-out: % Inhibition at 10 μM, D = PLA2G7)",Structure (SMILES)
25 to 75%,> 75%,25 to 75%,< 25%,> 1000 nM,< 100 nM,100 to 1000 nM,> 1000 nM,–,–,–,–,"CCN(Cc1cccc(N2CCOCC2)c1)C(=O)n1cc(C(F)(F)F)cn1 [Example 261, N-Ethyl-N-(3-morpholinobenzyl)-4-(trifluoromethyl)-1H-pyrazole-1-carboxamide]"
< 25%,< 25%,< 25%,< 25%,–,–,–,–,–,–,–,–,"CCN(Cc1cccc(N2CCOCC2)c1)C(=O)n1cc(C)cn1 [Example 262, N-Ethyl-4-methyl-N-(3-morpholinobenzyl)-1H-pyrazole-1-carboxamide]"
25 to 75%,> 75%,> 75%,< 25%,> 1000 nM,< 100 nM,100 to 1000 nM,> 1000 nM,–,–,–,–,"CCN(Cc1ccc(N2CCOCC2)cc1)C(=O)n1cc(C#N)cn1 [Example 263, 4-Cyano-N-ethyl-N-(4-morpholinobenzyl)-1H-pyrazole-1-carboxamide]"
< 25%,< 25%,< 25%,< 25%,–,–,–,–,–,–,–,–,"CCN(Cc1ccc(N2CCOCC2)cc1)C(=O)n1cc(C)cn1 [Example 265, N-Ethyl-4-methyl-N-(4-morpholinobenzyl)-1H-pyrazole-1-carboxamide]"
< 25%,> 75%,< 25%,< 25%,> 1000 nM,100 to 1000 nM,> 1000 nM,> 1000 nM,> 75%,> 75%,> 75%,< 25%,"CCN(Cc1cccc(N2CCOCC2)c1)C(=O)n1cc(Cl)cn1 [Example 266, 4-Chloro-N-ethyl-N-(3-morpholinobenzyl)-1H-pyrazole-1-carboxamide]"
< 25%,25 to 75%,25 to 75%,< 25%,–,–,–,–,–,–,–,–,"CCN(Cc1ccc(N2CCOCC2)cc1)C(=O)n1cc(Cl)cn1 [Example 267, 4-Chloro-N-ethyl-N-(4-morpholinobenzyl)-1H-pyrazole-1-carboxamide]"
